Assay results published in ChEMBL document CHEMBL4308841, “Synthesis, in vitro antiproliferative activity, and kinase inhibitory effects of pyrazole-containing diarylureas and diarylamides” (Eur J Med Chem, 2018).

Experiments:
TK-10 = experiment: Growth inhibition of human TK10 cells assessed as cell growth at 10 uM incubated for 48 hrs by sulforhodamine B assay relative to control; assay type: functional; settings: TK-10, 48 h, read-out: Activity
HOP-62 [1] = experiment: Growth inhibition of human HOP62 cells incubated for 48 hrs by sulforhodamine B assay; assay type: functional, cell-based; settings: HOP-62, 48 h
NCI-H23 [2] = experiment: Growth inhibition of human NCI-H23 cells incubated for 48 hrs by sulforhodamine B assay; assay type: functional, cell-based; settings: NCI-H23, 48 h
HCT-116 = experiment: Growth inhibition of human HCT116 cells incubated for 48 hrs by sulforhodamine B assay; assay type: functional, cell-based; settings: HCT-116, 48 h
KM12 [3] = experiment: Growth inhibition of human KM12 cells incubated for 48 hrs by sulforhodamine B assay; assay type: functional, cell-based; settings: KM12, 48 h
T47D [4] = experiment: Growth inhibition of human T47D cells incubated for 48 hrs by sulforhodamine B assay; assay type: functional, cell-based
MOLT-4 = experiment: Growth inhibition of human MOLT4 cells assessed as cell growth at 0.01 uM incubated for 48 hrs by sulforhodamine B assay relative to control; assay type: functional; settings: MOLT-4, 48 h, read-out: Activity
NCI-H226 = experiment: Growth inhibition of human NCI-H226 cells assessed as cell growth at 0.01 uM incubated for 48 hrs by sulforhodamine B assay relative to control; assay type: functional; settings: NCI-H226, 48 h, read-out: Activity
NCI-H23 [5] = experiment: Growth inhibition of human NCI-H23 cells assessed as cell growth at 0.01 uM incubated for 48 hrs by sulforhodamine B assay relative to control; assay type: functional; settings: NCI-H23, 48 h, read-out: Activity
SF-539 = experiment: Growth inhibition of human SF539 cells assessed as cell growth at 0.01 uM incubated for 48 hrs by sulforhodamine B assay relative to control; assay type: functional; settings: SF-539, 48 h, read-out: Activity
OVCAR-4 = experiment: Growth inhibition of human OVCAR4 cells assessed as cell growth at 0.01 uM incubated for 48 hrs by sulforhodamine B assay relative to control; assay type: functional; settings: OVCAR-4, 48 h, read-out: Activity
A498 = experiment: Growth inhibition of human A498 cells assessed as cell growth at 0.01 uM incubated for 48 hrs by sulforhodamine B assay relative to control; assay type: functional; settings: A498, 48 h, read-out: Activity
HOP-62 [6] = experiment: Growth inhibition of human HOP62 cells assessed as cell growth at 0.1 uM incubated for 48 hrs by sulforhodamine B assay relative to control; assay type: functional; settings: HOP-62, 48 h, read-out: Activity
SNB-19 [7] = experiment: Growth inhibition of human SNB19 cells assessed as cell growth at 0.1 uM incubated for 48 hrs by sulforhodamine B assay relative to control; assay type: functional; settings: SNB-19, 48 h, read-out: Activity
MDA-MB-435 = experiment: Growth inhibition of human MDA-MB-435 cells assessed as cell growth at 0.1 uM incubated for 48 hrs by sulforhodamine B assay relative to control; assay type: functional; settings: MDA-MB-435, 48 h, read-out: Activity
IGROV-1 = experiment: Growth inhibition of human IGROV1 cells assessed as cell growth at 0.1 uM incubated for 48 hrs by sulforhodamine B assay relative to control; assay type: functional; settings: IGROV-1, 48 h, read-out: Activity
SN12C = experiment: Growth inhibition of human SN12C cells assessed as cell growth at 0.1 uM incubated for 48 hrs by sulforhodamine B assay relative to control; assay type: functional; settings: read-out: Activity
T47D [8] = experiment: Growth inhibition of human T47D cells assessed as cell growth at 0.1 uM incubated for 48 hrs by sulforhodamine B assay relative to control; assay type: functional; settings: read-out: Activity
SR = experiment: Growth inhibition of human SR cells assessed as cell growth at 1 uM incubated for 48 hrs by sulforhodamine B assay relative to control; assay type: functional; settings: read-out: Activity
NCI-H322M = experiment: Growth inhibition of human NCI-H322M cells assessed as cell growth at 1 uM incubated for 48 hrs by sulforhodamine B assay relative to control; assay type: functional; settings: read-out: Activity
SNB-19 [9] = experiment: Growth inhibition of human SNB19 cells assessed as cell growth at 1 uM incubated for 48 hrs by sulforhodamine B assay relative to control; assay type: functional; settings: SNB-19, 48 h, read-out: Activity
M14 = experiment: Growth inhibition of human M14 cells assessed as cell growth at 1 uM incubated for 48 hrs by sulforhodamine B assay relative to control; assay type: functional; settings: M14, 48 h, read-out: Activity
UACC-62 = experiment: Growth inhibition of human UACC62 cells assessed as cell growth at 1 uM incubated for 48 hrs by sulforhodamine B assay relative to control; assay type: functional; settings: UACC-62, 48 h, read-out: Activity
ACHN = experiment: Growth inhibition of human ACHN cells assessed as cell growth at 1 uM incubated for 48 hrs by sulforhodamine B assay relative to control; assay type: functional; settings: read-out: Activity
MDA-MB-468 = experiment: Growth inhibition of human MDA-MB-468 cells assessed as cell growth at 1 uM incubated for 48 hrs by sulforhodamine B assay relative to control; assay type: functional; settings: MDA-MB-468, 48 h, read-out: Activity
NCI-H460 = experiment: Growth inhibition of human NCI-H460 cells assessed as cell growth at 100 uM incubated for 48 hrs by sulforhodamine B assay relative to control; assay type: functional; settings: NCI-H460, 48 h, read-out: Activity
HCC 2998 = experiment: Growth inhibition of human HCC2998 cells assessed as cell growth at 100 uM incubated for 48 hrs by sulforhodamine B assay relative to control; assay type: functional; settings: HCC 2998, 48 h, read-out: Activity
KM12 [10] = experiment: Growth inhibition of human KM12 cells assessed as cell growth at 100 uM incubated for 48 hrs by sulforhodamine B assay relative to control; assay type: functional; settings: KM12, 48 h, read-out: Activity
UACC-257 = experiment: Growth inhibition of human UACC257 cells assessed as cell growth at 100 uM incubated for 48 hrs by sulforhodamine B assay relative to control; assay type: functional; settings: UACC-257, 48 h, read-out: Activity
RXF 393 = experiment: Growth inhibition of human RXF393 cells assessed as cell growth at 100 uM incubated for 48 hrs by sulforhodamine B assay relative to control; assay type: functional; settings: RXF 393, 48 h, read-out: Activity
[11] = read-out: LC50 (the source's name)
[12] = read-out: pLC50 (the source's name) (converted)

## O=C(Nc1cccc(-n2cc(-c3ccncc3)c(-c3cc(O)cc(Cl)c3)n2)c1)Nc1ccc(Cl)c(C(F)(F)F)c1
TK-10
  growth at 10 µM: 25.9%
HOP-62 [1]; read-out: GI50
  GI50: 3.06 µM
HOP-62 [1]; [11]
  CC50: > 100 µM
HOP-62 [1]; read-out: TGI
  TGI: 13.4 µM
HOP-62 [1]; read-out: pGI50 (converted)
  GI50: 3.09 µM
HOP-62 [1]; [12]
  CC50: > 100 µM
HOP-62 [1]; read-out: pTGI (converted)
  TGI: 13.5 µM
NCI-H23 [2]; read-out: GI50
  GI50: 2.58 µM
NCI-H23 [2]; read-out: LC50
  LC50: 45.1 µM
NCI-H23 [2]; read-out: TGI
  TGI: 74 µM
NCI-H23 [2]; read-out: pGI50 (converted)
  GI50: 2.57 µM
NCI-H23 [2]; read-out: pLC50 (converted)
  LC50: 45.7 µM
NCI-H23 [2]; read-out: pTGI (converted)
  TGI: 7.41 µM
HCT-116
  IC50: 1.96 µM
HCT-116; read-out: GI50
  GI50: 1.96 µM
HCT-116; [11]
  CC50: 10.7 µM
HCT-116; read-out: TGI
  TGI: 44.7 µM
HCT-116; read-out: pGI50 (converted)
  GI50: 1.95 µM
HCT-116; [12]
  CC50: 10.7 µM
HCT-116; read-out: pTGI (converted)
  TGI: 4.47 µM
KM12 [3]; read-out: GI50
  GI50: 2.5 µM
KM12 [3]; [11]
  CC50: 47.2 µM
KM12 [3]; read-out: TGI
  TGI: 90.6 µM
KM12 [3]; read-out: pGI50 (converted)
  GI50: 2.57 µM
KM12 [3]; [12]
  CC50: 46.8 µM
KM12 [3]; read-out: pTGI (converted)
  TGI: 9.77 µM
T47D [4]; read-out: GI50
  GI50: 2.44 µM
T47D [4]; [11]
  CC50: 91.5 µM
T47D [4]; read-out: TGI
  TGI: 92.7 µM
T47D [4]; read-out: pGI50 (converted)
  GI50: 2.45 µM
T47D [4]; [12]
  CC50: 91.2 µM
T47D [4]; read-out: pTGI (converted)
  TGI: 9.33 µM
MOLT-4
  growth at 0.01 µM: 100%
NCI-H226
  growth at 0.01 µM: 97%
NCI-H23 [5]
  growth at 0.01 µM: 92%
SF-539
  growth at 0.01 µM: 104%
OVCAR-4
  growth at 0.01 µM: 99%
A498
  growth at 0.01 µM: 58%
HOP-62 [6]
  growth at 0.1 µM: 97%
SNB-19 [7]
  growth at 0.1 µM: 95%
MDA-MB-435
  growth at 0.1 µM: 94%
IGROV-1
  growth at 0.1 µM: 98%
SN12C
  growth at 0.1 µM: 100%
T47D [8]
  growth at 0.1 µM: 90%
SR
  growth at 1 µM: 57%
NCI-H322M
  growth at 1 µM: 93%
SNB-19 [9]
  growth at 1 µM: 104%
M14
  growth at 1 µM: 83%
UACC-62
  growth at 1 µM: 99%
ACHN
  growth at 1 µM: 92%
MDA-MB-468
  growth at 1 µM: 75%
NCI-H460
  growth at 100 µM: -52%
HCC 2998
  growth at 100 µM: -88%
KM12 [10]
  growth at 100 µM: -74%
UACC-257
  growth at 100 µM: -96%
RXF 393
  growth at 100 µM: -72%
